Assay results taken from the supplement of paper PMC10307832.

Columns and labels:
Experiment in all cases: relative viability (nuclei count vs DMSO), 5 days (fraction); higher = more cells survive
Seliciclib = compound: CC[C@H](CO)Nc1nc(NCc2ccccc2)c2ncn(C(C)C)c2n1 [Seliciclib]
Procedure, shortened: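 Nuclei counted with MetaXpress define viability as the ratio of treated to vehicle wells, given as a median across plates. The lung cancer cell lines were in 1536-well plates, pinned with five √10-spaced library-drug doses and imaged at 4× after 5 days and Hoechst staining. Plates passed with control CV below 25% and at least one doubling.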

Seliciclib + Luminespib = compound: CC[C@H](CO)Nc1nc(NCc2ccccc2)c2ncn(C(C)C)c2n1 [Seliciclib] + CCNC(=O)c1noc(-c2cc(C(C)C)c(O)cc2O)c1-c1ccc(CN2CCOCC2)cc1 [Luminespib] (partner 0.01 µM)
Procedure, shortened: (§1)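 For relative viability, nuclei counts in treated wells were divided by those in vehicle wells. Lung cancer cell lines had been pin-tool dosed in 1536-well plates the day after seeding and cultured for 5 days, then fixed and stained in one step (final 0.05% Triton X-100, 1% formaldehyde, 1 ug/ml Hoechst) and imaged at 4×. Doses were one drug alone or a fixed anchor-drug dose plus five library-drug doses (not always all listed) in √10 steps, and values are duplicate-plate medians.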

Seliciclib + Foretinib = compound: CC[C@H](CO)Nc1nc(NCc2ccccc2)c2ncn(C(C)C)c2n1 [Seliciclib] + COc1cc2c(Oc3ccc(NC(=O)C4(C(=O)Nc5ccc(F)cc5)CC4)cc3F)ccnc2cc1OCCCN1CCOCC1 [Foretinib] (partner 0.25 µM)
Procedure, shortened: as §1

Seliciclib + OSI-027 = compound: CC[C@H](CO)Nc1nc(NCc2ccccc2)c2ncn(C(C)C)c2n1 [Seliciclib] + COc1cccc2cc(-c3nc([C@H]4CC[C@H](C(=O)O)CC4)n4ncnc(N)c34)[nH]c12 [OSI-027] (partner 0.5 µM)
Procedure, shortened: as §1

Seliciclib + Tozasertib = compound: CC[C@H](CO)Nc1nc(NCc2ccccc2)c2ncn(C(C)C)c2n1 [Seliciclib] + Cc1cc(Nc2cc(N3CCN(C)CC3)nc(Sc3ccc(NC(=O)C4CC4)cc3)n2)n[nH]1 [Tozasertib] (partner 0.1 µM)
Procedure, shortened: as §1

Seliciclib + Dasatinib = compound: CC[C@H](CO)Nc1nc(NCc2ccccc2)c2ncn(C(C)C)c2n1 [Seliciclib] + Cc1nc(Nc2ncc(C(=O)Nc3c(C)cccc3Cl)s2)cc(N2CCN(CCO)CC2)n1 [Dasatinib] (partner 0.075 µM)
Procedure, shortened: as §1

Seliciclib + Phenformin = compound: CC[C@H](CO)Nc1nc(NCc2ccccc2)c2ncn(C(C)C)c2n1 [Seliciclib] + N=C(N)NC(=N)NCCc1ccccc1 [Phenformin] (partner 250 µM)
Procedure, shortened: as §1

NCI-H1623
relative viability (Seliciclib; 0.08 µM): 0.968
relative viability (Seliciclib; 0.253 µM): 0.867
relative viability (Seliciclib; 0.8 µM): 0.868
relative viability (Seliciclib; 2.53 µM): 1.01
relative viability (Seliciclib; 8 µM): 0.81
relative viability (Seliciclib + Luminespib; first compound 0.08 µM): 0.66
relative viability (Seliciclib + Luminespib; first compound 0.253 µM): 0.367
relative viability (Seliciclib + Luminespib; first compound 0.8 µM): 0.568
relative viability (Seliciclib + Luminespib; first compound 2.53 µM): 0.558
relative viability (Seliciclib + Luminespib; first compound 8 µM): 0.512
relative viability (Seliciclib + Foretinib; first compound 0.08 µM): 0.91
relative viability (Seliciclib + Foretinib; first compound 0.253 µM): 0.773
relative viability (Seliciclib + Foretinib; first compound 0.8 µM): 0.716
relative viability (Seliciclib + Foretinib; first compound 2.53 µM): 0.754
relative viability (Seliciclib + Foretinib; first compound 8 µM): 0.864
relative viability (Seliciclib + OSI-027; first compound 0.08 µM): 0.425
relative viability (Seliciclib + OSI-027; first compound 0.253 µM): 0.449
relative viability (Seliciclib + OSI-027; first compound 0.8 µM): 0.396
relative viability (Seliciclib + OSI-027; first compound 2.53 µM): 0.415
relative viability (Seliciclib + OSI-027; first compound 8 µM): 0.415
relative viability (Seliciclib + Tozasertib; first compound 0.08 µM): 0.414
relative viability (Seliciclib + Tozasertib; first compound 0.253 µM): 0.317
relative viability (Seliciclib + Tozasertib; first compound 0.8 µM): 0.363
relative viability (Seliciclib + Tozasertib; first compound 2.53 µM): 0.418
relative viability (Seliciclib + Tozasertib; first compound 8 µM): 0.414
relative viability (Seliciclib + Dasatinib; first compound 0.08 µM): 0.562
relative viability (Seliciclib + Dasatinib; first compound 0.253 µM): 0.479
relative viability (Seliciclib + Dasatinib; first compound 0.8 µM): 0.498
relative viability (Seliciclib + Dasatinib; first compound 2.53 µM): 0.53
relative viability (Seliciclib + Dasatinib; first compound 8 µM): 0.603
relative viability (Seliciclib + Phenformin; first compound 0.08 µM): 0.609
relative viability (Seliciclib + Phenformin; first compound 0.253 µM): 0.545
relative viability (Seliciclib + Phenformin; first compound 0.8 µM): 0.502
relative viability (Seliciclib + Phenformin; first compound 2.53 µM): 0.507
relative viability (Seliciclib + Phenformin; first compound 8 µM): 0.538
